{"source": "EPA's ToxValDB 9.5 (doi:10.2903/j.efsa.2010.1871)", "key": {"Adalia sp.": {"system": "Adalia sp.", "assay": "LR50; higher = less toxic", "settings": "chronic/long-term; duration: 21 days; mortality"}, "Daphnia magna": {"system": "Daphnia magna", "settings": "chronic/long-term, duration: 21 days"}, "Lepomis macrochirus": {"system": "Lepomis macrochirus", "settings": "acute; duration: 96 hours; mortality"}, "Pimephales promelas": {"system": "Pimephales promelas", "settings": "chronic/long-term; duration: 35 days; growth"}, "Bibionidae": {"system": "Bibionidae", "settings": "chronic/long-term; duration: 28 days; other"}, "Mus musculus": {"system": "Mus musculus", "settings": "acute; oral; mortality"}, "Macromiidae": {"system": "Macromiidae", "settings": "acute; duration: 96 hours; growth"}, "Tagia sp.": {"system": "Tagia sp.", "settings": "acute; duration: 14 days; mortality"}, "Apis mellifera": {"system": "Apis mellifera", "settings": "acute; duration: 48 hours; dermal; mortality"}, "Canidae": {"system": "Canidae", "settings": "oral, Dog Other, hematological"}, "[1]": {"settings": "reproduction developmental, reproduction"}}}
{"smiles": "CCc1ccc(C(=O)NN(C(=O)c2cc(C)cc(C)c2)C(C)(C)C)cc1", "note": "[Tebufenozide]", "values": [{"measurement": "LR50", "setting": "Adalia sp.", "value": "> 128", "unit": "g/ha"}, {"measurement": "LC50", "setting": "Colinus virginianus; acute, oral, diet, mortality", "value": "> 814", "unit": "mg/kg"}, {"measurement": "LD50", "setting": "Colinus virginianus; acute, oral, mortality", "value": "> 2150", "unit": "mg/kg"}, {"measurement": "NOAEL", "setting": "Colinus virginianus; [1]", "value": 48, "unit": "mg/kg-day"}, {"measurement": "NOEC", "setting": "Daphnia magna; growth", "value": 0.029, "unit": "mg/L"}, {"measurement": "NOEC", "setting": "Daphnia magna; reproduction", "value": 0.0078, "unit": "mg/L"}, {"measurement": "LC50", "setting": "Lepomis macrochirus", "value": 3, "unit": "µg/mL"}, {"measurement": "LD50", "setting": "Rattus norvegicus; acute, oral, mortality", "value": "> 5000", "unit": "mg/kg"}, {"measurement": "NOAEL", "setting": "Rattus norvegicus; [1]", "value": 15, "unit": "mg/kg-day"}, {"measurement": "NOEC", "setting": "Pimephales promelas", "value": 0.71, "unit": "mg/L"}, {"measurement": "NOEC", "setting": "Bibionidae", "value": 0.0057, "unit": "mg/L"}, {"measurement": "LD50", "setting": "Mus musculus", "value": "> 5000", "unit": "mg/kg"}, {"measurement": "NOEC", "setting": "Macromiidae", "value": 0.046, "unit": "mg/L"}, {"measurement": "LC50", "setting": "Tagia sp.", "value": "> 1000", "unit": "mg/kg"}, {"measurement": "NOEC", "setting": "Tagia sp.", "value": "≥ 1000", "unit": "mg/kg"}, {"measurement": "LD50", "setting": "Apis mellifera", "value": "> 234", "unit": "µg/piece"}, {"measurement": "NOAEL", "setting": "Canidae; chronic, duration: 52 weeks", "value": 2, "unit": "mg/kg-day"}, {"measurement": "NOAEL", "setting": "Canidae; subchronic, duration: 90 days", "value": 2, "unit": "mg/kg-day"}]}
